According to US20250186600A1, “EXCIPIENT COMPOUNDS FOR PROTEIN FORMULATIONS” (Comera Life Sciences, Inc., priority 2020, published 2025):
Where “and” joins values, the source holds several entries; their conditions need not be identical. Equal entries are not always repeated. Structures can show the parent of a compound that is named as a salt. Values belong to the compound of their own block, whether it stands above or below them.

Columns and labels:
Format in all cases: physicochemical
[1] = system: bovine gamma globulin (BGG); test: Normalized viscosity of BGG with caffeine and a secondary excipient (Example 40); details: BGG about 280 mg/mL, 20 mM histidine pH 6, 25° C.
[2] = Caffeine solubility with co-solutes during refrigerated storage (Example 61); design: key: (PPT)—precipitate observed; (—)—clear solution observed; details: 50 mM co-solute, 25 mM histidine pH 6, stored 2 to 5° C.
Experimental: The resulting microplates were then sealed with microplate tape and stored in a refrigerator with the temperature maintained in the range of 2 to 5° C. Over the course of storage, the microplates were visually observed for evidence of precipitate in the well.

infliximab = test: Thermal degradation assay at 55° C., normalized monomer loss rate by HP-SEC (Example 51); details: infliximab about 2 mg/mL, 20 mM phosphate pH 7, 55° C.
Experimental: ® infliximab was obtained from the Clinigen Group and reconstituted according to the instructions in the Janssen package insert, resulting in a 10 mg/mL infliximab solution in 5 mM phosphate buffer, pH about 7, with 50 mg/mL sucrose and 0.05 mg/mL polysorbate 80. The reconstituted drug product was then combined 1:1 by volume with 50 mM sodium acetate buffer at pH 5. The resulting solution was then injected onto a small preparative scale cation exchange column (GE Healthcare, Chicago, IL). After the infliximab was loaded onto the column, the column was washed with 10 column volumes of 50 mM sodium acetate buffer, pH 5. The infliximab was then eluted from the column with five column volumes of a 250 mM sodium chloride, 50 mM sodium acetate buffer at pH 5. […] Stock solutions of either 4 or 8 mg/mL infliximab in 20 mM phosphate buffer at pH 7 were then used in subsequent tests.
All excipients used in this Example, listed in Table 52 below, were of the highest purity, and were obtained from Sigma Aldrich (St. Louis, MO) or Cayman Chemical (Ann Arbor, MI). The stock infliximab solutions were mixed with stock excipient solutions containing the excipients listed in Table 52 formulated in 20 mM phosphate buffer, pH 7 to achieve a final infliximab concentration of about 2 mg/mL in each sample. The samples containing the infliximab solutions and the stock excipient solutions were then aliquoted into five 100 μL aliquots in PCR tubes. […] These stressed samples were then analyzed for monomer content by high performance size exclusion chromatography (HP-SEC) using an Agilent 1100 series HPLC equipped with a diode array detector monitoring absorbance at 280 nm. […] For each sample, the monomer peak area was divided by the monomer peak area obtained from an identical but unstressed sample to obtain the percent monomer remaining after exposure to thermal stress. The remaining monomer as a percentage of the unstressed sample was then plotted as a function of incubation time and the absolute value of the slope of a linear fit to the data was recorded as the monomer loss rate.

omalizumab [3] = test: DLS viscosity of concentrated omalizumab (Example 53); design: key to DLS Viscosity, Replicate 1: observation on combining excipient with protein / DLS Viscosity, Replicate 2: observation on combining excipient with protein: * Combination of excipient with protein resulted in reversible precipitation; details: 20 mM HisHCl pH 6; for DLS Viscosity, Replicate 1 / DLS Viscosity, Replicate 2: concentrated omalizumab 9 parts : 1 part excipient stock (1 M or solubility limit)
Experimental: O-(octylphosphoryl)choline was purchased from Sigma Aldrich (St. […] O-(octylphosphoryl)choline was used as a stock excipient without additional preparation. […] In this example, the ratio of apparent radius to the actual radius of the gold nanoparticle was multiplied by the viscosity of water at 25° C. to calculate the viscosity of the protein formulation in centipoise (cP).

omalizumab [4] = test: DLS viscosity of concentrated omalizumab (Example 54); details: concentrated omalizumab 9 parts : 1 part excipient stock (1 M or solubility limit), 20 mM HisHCl pH 6
Experimental: Hordenine HCl was purchased from Bulk Supplements (Henderson, NV).
The concentrated protein formulation was then combined with a stock excipient solution or a control at a ratio of 9 parts protein: 1 part excipient solution or buffer (for the control), and aliquots were added to the wells of a 384 well microplate (Aurora Microplates, Whitefish, MT). […] After the microplate was shaken, 2 microliters of a 5-fold dilution of polyethylene glycol surface-modified gold nanoparticles having a diameter of 100 nm (nanoComposix, San Diego, CA) in 20 mM His HCl were added to each sample well. […] In this example, the ratio of apparent radius to the actual radius of the gold nanoparticle was multiplied by the viscosity of water at 25° C. to calculate the viscosity of the protein formulation in centipoise (cP).

[5] = Excipient A caffeine 15 mg/mL + Excipient B 20 mg/mL
[6] = Excipient A caffeine 15 mg/mL + Excipient B 15 mg/mL
[7] = concentrated omalizumab 9 parts : 1 part excipient stock

- Normalized Viscosity [1, 5]: 0.60
- Day 1 (visual observation for precipitate) ([2]; caffeine 7.5 mg/mL): —
- Day 7 (visual observation for precipitate) ([2]; caffeine 7.5 mg/mL): —
- Day 18 (visual observation for precipitate) ([2]; caffeine 7.5 mg/mL): —
- Day 27 (visual observation for precipitate) ([2]; caffeine 7.5 mg/mL): —
- Day 56 (visual observation for precipitate) ([2]; caffeine 7.5 mg/mL): —
- Day 1 (visual observation for precipitate) ([2]; caffeine 10 mg/mL): —
- Day 7 (visual observation for precipitate) ([2]; caffeine 10 mg/mL): —
- Day 18 (visual observation for precipitate) ([2]; caffeine 10 mg/mL): —
- Day 27 (visual observation for precipitate) ([2]; caffeine 10 mg/mL): —
- Day 56 (visual observation for precipitate) ([2]; caffeine 10 mg/mL): —
- Day 1 (visual observation for precipitate) ([2]; caffeine 12.5 mg/mL): —
- Day 7 (visual observation for precipitate) ([2]; caffeine 12.5 mg/mL): —
- Day 18 (visual observation for precipitate) ([2]; caffeine 12.5 mg/mL): —
- Day 27 (visual observation for precipitate) ([2]; caffeine 12.5 mg/mL): —
- Day 56 (visual observation for precipitate) ([2]; caffeine 12.5 mg/mL): —
- Day 1 (visual observation for precipitate) ([2]; caffeine 15 mg/mL): —
- Day 7 (visual observation for precipitate) ([2]; caffeine 15 mg/mL): —
- Day 18 (visual observation for precipitate) ([2]; caffeine 15 mg/mL): —
- Day 27 (visual observation for precipitate) ([2]; caffeine 15 mg/mL): —
- Day 56 (visual observation for precipitate) ([2]; caffeine 15 mg/mL): PPT
- Day 1 (visual observation for precipitate) ([2]; caffeine 20 mg/mL): —
- Day 7 (visual observation for precipitate) ([2]; caffeine 20 mg/mL): PPT
- Day 18 (visual observation for precipitate) ([2]; caffeine 20 mg/mL): PPT
- Day 27 (visual observation for precipitate) ([2]; caffeine 20 mg/mL): PPT
- Day 56 (visual observation for precipitate) ([2]; caffeine 20 mg/mL): PPT
SMILES: N[C@@H](Cc1ccccc1)C(=O)O [Phenylalanine]

- Normalized Viscosity [1, 6]: 0.63
SMILES: NC(=O)c1cccnc1 [Niacinamide]

- DLS Viscosity, Replicate 1 (omalizumab [3]): 35.6 cP
- DLS Viscosity, Replicate 2 (omalizumab [3]): 35.4 cP
SMILES: CCCCCCCCOP(=O)([O-])OCC[N+](C)(C)C [O-(octylphosphoryl)choline]

- DLS Viscosity, Replicate 1 (omalizumab [3]): 15.9 cP
- DLS Viscosity, Replicate 2 (omalizumab [3]): 17.4 cP
SMILES: O=S(=O)(O)CCN1CCN(CCO)CC1 [HEPES]

- DLS Viscosity, Replicate 1 (omalizumab [3]): 45.5 cP
- DLS Viscosity, Replicate 2 (omalizumab [3]): 36.2 cP
SMILES: OC(CCN1CCCCC1)(c1ccccc1)c1ccccc1 [Pridinol Methanesulfonate]

- Monomer loss rate (infliximab; excipient 200 mM): 0.0656 % mon/min
- Normalized monomer loss rate (infliximab; excipient 200 mM): 0.409
SMILES: OC[C@@H](O)[C@@H](O)[C@H](O)[C@@H](O)CO [Sorbitol]

- Normalized Viscosity [1, 5]: 0.69
SMILES: CC(C)C[C@H](N)C(=O)O [Leucine]

More lines, now with the values behind:

SMILES: CC(O)(P(=O)(O)O)P(=O)(O)O [Etidronate]
- Monomer loss rate (infliximab; excipient 25 mM): 0.0824 % mon/min
- Normalized monomer loss rate (infliximab; excipient 25 mM): 0.514
- Monomer loss rate (infliximab; excipient 50 mM): 0.0685 % mon/min
- Normalized monomer loss rate (infliximab; excipient 50 mM): 0.428
- Monomer loss rate (infliximab; excipient 100 mM): 0.0321 % mon/min and 0.0284 % mon/min
- Normalized monomer loss rate (infliximab; excipient 100 mM): 0.200 and 0.177

SMILES: CS(C)(=O)=O [Dimethyl sulfone, dimethyl sulfone]
- Normalized Viscosity ([1]; Excipient A caffeine 15 mg/mL + Excipient B 25 mg/mL): 0.65

SMILES: CCN(CC)CCOC(=O)C1(C2CCCCC2)CCCCC1 [Dicyclomine HCl]
- DLS Viscosity, Replicate 1: observation on combining excipient with protein (omalizumab [3]; [7]): *
- DLS Viscosity, Replicate 2: observation on combining excipient with protein (omalizumab [3]; [7]): *

SMILES: CC(=O)[O-].[Na+] [Sodium acetate]
- Normalized Viscosity ([1]; Excipient A caffeine 15 mg/mL + Excipient B 12 mg/mL): 0.77

SMILES: CCO [Ethanol]
- Normalized Viscosity ([1]; Excipient A caffeine 15 mg/mL + Excipient B 22 mg/mL): 0.65

SMILES: [Cl-].[Na+] [NaCl]
- Monomer loss rate (infliximab; excipient 150 mM): 0.0727 % mon/min
- Normalized monomer loss rate (infliximab; excipient 150 mM): 0.454

SMILES: CCCCCCn1ccnc1 [Excipient 1-hexylimidazole, 1-hexylimidazole]
- DLS Viscosity, Replicate 1 (omalizumab [3]): 13.6 cP
- DLS Viscosity, Replicate 2 (omalizumab [3]): 14.0 cP
- DLS Viscosity, Replicate 1 (omalizumab [4]): 27.0 cP
- DLS Viscosity, Replicate 2 (omalizumab [4]): 33.1 cP

SMILES: N[C@@H](CC(=O)O)C(=O)O [Aspartic acid]
- Normalized Viscosity [1, 5]: 0.73

SMILES: CCCCn1ccnc1 [Excipient 1-butylimidazole, 1-butylimidazole]
- DLS Viscosity, Replicate 1 (omalizumab [3]): 16.8 cP
- DLS Viscosity, Replicate 2 (omalizumab [3]): 15.6 cP
- DLS Viscosity, Replicate 1 (omalizumab [4]): 40.5 cP
- DLS Viscosity, Replicate 2 (omalizumab [4]): 74.0 cP

SMILES: Cl.N=C(N)NCCC[C@H](N)C(=O)O [Arg HCl]
- Monomer loss rate (infliximab; excipient 125 mM): 0.1186 % mon/min
- Normalized monomer loss rate (infliximab; excipient 125 mM): 0.740

SMILES: O.O.[Ca+2].[Cl-].[Cl-] [CaCl2 dihydrate]
- Normalized Viscosity [1, 6]: 0.65
